# Laboratory results from patent US20170184695A1, “IMAGING OF CREATINE KINASE ENZYME EXPRESSION IN CANCEROUS TISSUES” (Sidra Medical and Research Center, priority 2014, published 2017).
# System: CK enzyme expressed in the tumor
# Assay: In vivo CEST imaging of creatine kinase expression in tumor after tail vein injection of PCr
# Conditions: 60 minutes post infusion (tail vein injection of PCr) vs base line CEST map, FIG. 3
# Description: In certain embodiments, the radio frequency (RF) pulse can be provided at different frequency offsets. In certain embodiments, to detect the conversion of phosphocreatine to creatine, an RF pulse was applied at a frequency offset of about 1.8 ppm for a period of about 1 to about 3 seconds.
# “b” is the base line CEST map from the same slice. “c” is a CEST map of the same slice at 60 minutes following tail vein injection of PCr.
smiles,measurement,value
"CN(CC(=O)O)C(=N)NP(=O)(O)O [PCr, phosphocreatine]",increase in CEST contrast,about 11%
